Assay [1] concerns the target T1, pseudo-kinase domain (JH2, amino-acids 536-812) of human V617F mutant JAK2 (Homo sapiens, UniProt O60674, F794H/V617F/W659A/W777A).
T1 construct: pseudo-kinase domain (JH2, amino-acids 536-812 with 3 surface mutations W659A, W777A, F794H); purchased BPS Bioscience 79498; host or cells: baculovirus expression system
The assay can be described thus: JAK2 LanthaScreen JH2-V617F Binding Assay. As to conditions: 1 hour at 25° C. In short, it runs like this:
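Biotinylated His-Avi-tagged JH2 protein was baculovirus-expressed and used at 0.26 nM. It was incubated with compound, 50 nM fluorescent JH2 tracer and 0.25 nM streptavidin-Tb for 1 h at 25 °C in pH 7.5 Tris buffer with MgCl2, BSA, DTT. Non-specific binding was defined with 2 mM ATP. IC50 came from four-parameter fits of TR-FRET signal.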
(In general: TR-FRET usually uses a lanthanide donor and a delayed reading to cut background.)

The target in assay [2] is T2, pseudo-kinase domain (JH2, amino-acids 536-812) of human Wild Type JAK2 (Homo sapiens, UniProt O60674, F794H/W659A/W777A).
T2 construct: pseudo-kinase domain (JH2, amino-acids 536-812 with 3 surface mutations W659A, W777A, F794H); purchased BPS Bioscience 79463; host or cells: baculovirus expression system
As to the kind of experiment: JAK2 LanthaScreen JH2-WT Binding Assay. As to conditions: 1 hour at 25° C. In short, it runs like this: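 Binding was measured by TR-FRET between streptavidin-Tb (0.25 nM) on biotinylated JH2 (0.145 nM) and 50 nM fluorescent tracer, with compound dose series, 1 h at 25° C; IC50 fitted.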

Assay [3] has as its target T3, catalytic domain (JH1, amino acids 826-1132) of human JAK2 (Homo sapiens, UniProt O60674).
T3 construct: catalytic domain (JH1, amino acids 826-1132) of human JAK2; purchased Carna Biosciences 08-445-20N; host or cells: baculovirus expression system
As to the kind of experiment: JAK2 LanthaScreen JH1 Binding Assay. Conditions: 2 hours at 25° C. In short, it runs like this: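 FLAG-tagged biotinylated JAK2 JH1 (1.5 nM) incubated with compounds, 50 nM fluorescent tracer and 0.5 nM streptavidin-Tb in Tris pH 7.5 buffer with MgCl2, BSA, DTT, 2 h at 25 °C.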

Assay [4] deals with T4, catalytic domain (JH1, amino acids 808-1132) of human JAK2 (Homo sapiens, UniProt O60674).
T4 construct: catalytic domain (JH1, amino acids 808-1132) of human JAK2; His (N); purchased BPS Bioscience 40450; host or cells: baculovirus expression system
The assay can be described thus: JAK2 HTRF Enzyme Activity Assay. In kind it is biochemical. As to conditions: ATP 30 μM, read-out: ENZ 30UMATP. In short, it runs like this:
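His-tagged JAK2 JH1 from baculovirus, 0.015 nM, incubated with compound, ATP at 30 μM or 1 mM and 500 nM biotinylated peptide, pH 7.5, 60 min at 25° C. HTRF read-out via Eu-anti-phosphotyrosine and streptavidin-APC after EDTA stop; IC50 from four-parameter dose-response fit.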

The structures appear in SMILES notation. Where a name gives a salt, the structure may show the parent alone.

T1 sequence (O60674 536-812 V617F/W659A/W777A/F794H): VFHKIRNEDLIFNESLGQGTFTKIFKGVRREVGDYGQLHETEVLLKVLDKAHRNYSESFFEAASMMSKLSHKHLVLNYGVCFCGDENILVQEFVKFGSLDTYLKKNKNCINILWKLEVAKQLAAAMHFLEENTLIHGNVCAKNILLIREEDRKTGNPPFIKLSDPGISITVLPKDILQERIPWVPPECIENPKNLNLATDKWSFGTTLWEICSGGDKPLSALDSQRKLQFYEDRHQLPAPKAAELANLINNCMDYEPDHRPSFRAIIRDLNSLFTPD
T3 sequence (O60674 826-1132): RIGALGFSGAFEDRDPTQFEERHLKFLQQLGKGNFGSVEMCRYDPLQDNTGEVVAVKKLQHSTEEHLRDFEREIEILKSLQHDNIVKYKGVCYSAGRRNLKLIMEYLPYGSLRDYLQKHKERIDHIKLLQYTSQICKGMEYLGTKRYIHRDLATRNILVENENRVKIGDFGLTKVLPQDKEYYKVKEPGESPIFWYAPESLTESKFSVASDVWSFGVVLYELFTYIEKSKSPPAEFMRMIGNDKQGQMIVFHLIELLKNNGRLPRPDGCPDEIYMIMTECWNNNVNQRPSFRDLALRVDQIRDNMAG
T4 sequence (O60674 808-1132): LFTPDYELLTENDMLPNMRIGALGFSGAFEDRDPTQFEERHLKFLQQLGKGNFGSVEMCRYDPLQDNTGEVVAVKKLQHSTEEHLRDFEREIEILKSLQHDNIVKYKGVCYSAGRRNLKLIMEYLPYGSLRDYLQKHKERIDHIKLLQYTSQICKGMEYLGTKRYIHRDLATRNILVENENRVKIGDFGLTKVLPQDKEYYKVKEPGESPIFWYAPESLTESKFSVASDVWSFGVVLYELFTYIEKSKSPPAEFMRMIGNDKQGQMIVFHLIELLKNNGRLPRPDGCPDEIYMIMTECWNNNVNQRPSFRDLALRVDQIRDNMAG
T2 sequence (O60674 536-812 W659A/W777A/F794H): as the sequence (O60674 536-812 V617F/W659A/W777A/F794H) above, with F82V counted along it

With `CN1C(=O)C2(CCN(C3(CC#N)CCC3)CC2)c2c1cnc1[nH]c(-c3ccn(C)c3)c(-c3ccc4c(cnn4C)c3)c21` [Example 42, 2-(1-(6-Methyl-1-(1-methyl-1H-indazol-5-yl)-2-(1-methyl-IH-pyrrol-3-yl)-7-oxo-6,7-dihydro-3H-spiro[dipyrrolo[2,3b:3′,2′-d]pyridine-8,4′-piperidin]-1′-yl)cyclobutyl)acetonitrile, trifluoroacetate salt], the IC50 was at most 100 nM in assay [1], at most 100 nM in assay [2], 500 to 1250 nM in assay [3] and 100 to 500 nM in assay [4].

For `CN1C(=O)C2(CCN(C3(CC#N)CCC3)CC2)c2c1cnc1[nH]c(-c3cnn4c3CCCC4)c(-c3ccc4c(cnn4C)c3)c21` [Example 43, 2-(1-(6-Methyl-1-(1-methyl-1H-indazol-5-yl)-7-oxo-2-(4,5,6,7-tetrahydropyrazolo[1,5-a]pyridin-3-yl)-6,7-dihydro-3H-spiro[dipyrrolo[2,3-b:3′,2′-d]pyridine-8,4′-piperidin]-1′-yl)cyclobutyl)acetonitrile], the IC50 in assay [1] was at most 100 nM; in assay [2], at most 100 nM; in assay [3] it was above 2500 nM; in assay [4], above 2500 nM.

Take `COC(C)(C)Cn1cc(-c2[nH]c3ncc4c(c3c2-c2ccc3c(cnn3C)c2)C2(CCN(C3(CC#N)CCC3)CC2)C(=O)N4C)cn1` [Example 44, 2-(1-(2-(1-(2-Methoxy-2-methylpropyl)-1H-pyrazol-4-yl)-6-methyl-1-(1-methyl-1H-indazol-5-yl)-7-oxo-6,7-dihydro-3H-spiro[dipyrrolo[2,3-b:3′,2′-d]pyridine-8,4′-piperidin]-1′-yl)cyclobutyl)acetonitrile, trifluoroacetate salt]: the IC50 in assay [1] was at most 100 nM; in assay [2], at most 100 nM; in assay [3], 100 to 500 nM; in assay [4], 100 to 500 nM.

Regarding `O=C(O)C(F)(F)F.[2H]C([2H])([2H])n1ccc2cc(-c3c(-c4cnn(CCOC)c4)[nH]c4ncc5c(c34)C3(CCN(C4(CC#N)CCC4)CC3)C(=O)N5C)ccc21` [Example 46, 2-(1-(2-(1-(2-Methoxyethyl)-1H-pyrazol-4-yl)-6-methyl-1-(1-(methyl-d3)-1H-indol-5-yl)-7-oxo-6,7-dihydro-3H-spiro[dipyrrolo[2,3-b:3′,2′-d]pyridine-8,4′-piperidin]-1′-yl)cyclobutyl)acetonitrile, trifluoroacetate salt], the IC50 in assay [1] was at most 100 nM; in assay [2], at most 100 nM; in assay [3], 500 to 1250 nM; in assay [4], 500 to 1250 nM.

Consider `COc1c(F)cc(-c2c(-c3cnn(CC(C)(C)O)c3)[nH]c3ncc4c(c23)C2(CCN(C3(CC#N)CCC3)CC2)C(=O)N4C)cc1F` [Example 47, 2-(1-(1-(3,5-Difluoro-4-methoxyphenyl)-2-(1-(2-hydroxy-2-methylpropyl)-1H-pyrazol-4-yl)-6-methyl-7-oxo-6,7-dihydro-3H-spiro[dipyrrolo[2,3-b:3′,2′-d]pyridine-8,4′-piperidin]-1′-yl)cyclobutyl)acetonitrile, trifluoroacetate salt], for which the IC50 was at most 100 nM in assay [1], at most 100 nM in assay [2], above 2500 nM in assay [3] and above 2500 nM in assay [4].

With `CN1C(=O)C2(CCN(C3(CC#N)CCC3)CC2)c2c1cnc1[nH]c(-c3cnn(CC(C)(C)O)c3)c(-c3cc4cnccc4s3)c21` [Example 48, 2-(1-(2-(1-(2-Hydroxy-2-methylpropyl)-1H-pyrazol-4-yl)-6-methyl-7-oxo-1-(thieno[3,2-c]pyridin-2-yl)-6,7-dihydro-3H-spiro[dipyrrolo[2,3-b:3′,2′-d]pyridine-8,4′-piperidin]-1′-yl)cyclobutyl)acetonitrile, trifluoroacetate salt], the IC50 was at most 100 nM in assay [1], at most 100 nM in assay [2], 100 to 500 nM in assay [3] and 100 to 500 nM in assay [4].

Take `CN1C(=O)C2(CCN(C3(CC#N)CCC3)CC2)c2c1cnc1[nH]c(-c3cnn(CC(C)(C)O)c3)c(-c3ccc(C4CC4)cc3)c21` [Example 49, 2-(1-(1-(4-Cyclopropylphenyl)-2-(1-(2-hydroxy-2-methylpropyl)-1H-pyrazol-4-yl)-6-methyl-7-oxo-6,7-dihydro-3H-spiro[dipyrrolo[2,3-b:3′,2′-d]pyridine-8,4′-piperidin]-1′-yl)cyclobutyl)acetonitrile, trifluoroacetate salt]: the IC50 in assay [1] was at most 100 nM; in assay [2] it was at most 100 nM; in assay [3], above 2500 nM; in assay [4], above 2500 nM.

Consider `CN1C(=O)C2(CCN(C3(CC#N)CCC3)CC2)c2c1cnc1[nH]c(-c3cnn(CC(C)(C)O)c3)c(-c3ccc(OC(F)(F)F)cc3)c21` [Example 50, 2-(1-(2-(1-(2-Hydroxy-2-methylpropyl)-1H-pyrazol-4-yl)-6-methyl-7-oxo-1-(4-(trifluoromethoxy)phenyl)-6,7-dihydro-3H-spiro[dipyrrolo[2,3-b:3′,2′-d]pyridine-8,4′-piperidin]-1′-yl)cyclobutyl)acetonitrile, trifluoroacetate salt], for which the IC50 in assay [1] is at most 100 nM; in assay [2], at most 100 nM; in assay [3] it was above 2500 nM; in assay [4], above 2500 nM.

In the case of `CN1C(=O)C2(CCN(C3(CC#N)CCC3)CC2)c2c1cnc1[nH]c(-c3cnn(CC(C)(C)O)c3)c(-c3ccc(C(F)(F)F)cc3)c21` [Example 52, 2-(1-(2-(1-(2-Hydroxy-2-methylpropyl)-1H-pyrazol-4-yl)-6-methyl-7-oxo-1-(4-(trifluoromethyl)phenyl)-6,7-dihydro-3H-spiro[dipyrrolo[2,3-b:3′,2′-d]pyridine-8,4′-piperidin]-1′-yl)cyclobutyl)acetonitrile, trifluoroacetate salt], the IC50 in assay [1] was at most 100 nM; in assay [2], at most 100 nM; in assay [3], above 2500 nM; in assay [4], above 2500 nM.

As for `CCS(=O)(=O)N1CC2(C1)CC1(C2)C(=O)N(C)c2cnc3[nH]c(-c4cnn(C(C)C)c4)c(-c4ccc5c(cnn5C)c4)c3c21` [Example 54, 1-(Ethylsulfonyl)-2″-(1-isopropyl-1H-pyrazol-4-yl)-6″-methyl-1″-(1-methyl-1H-indazol-5-yl)-3″,6″-dihydro-7″H-dispiro[azetidine-3,1′-cyclobutane-3′,8″-dipyrrolo[2,3-b:3′,2′-d]pyridin]-7″-one, trifluoroacetate salt], the IC50 in assay [1] is at most 100 nM; in assay [2] it was at most 100 nM; in assay [3], 500 to 1250 nM; in assay [4], 500 to 1250 nM.

As for `CN1C(=O)C2(Cc3ccccc3C2)c2c1cnc1[nH]c(-c3ccc(CN4CCC(S(C)(=O)=O)CC4)cc3)cc21` [Example 57, 6-Methyl-2-(4-((4-(methylsulfonyl)piperidin-1-yl)methyl)phenyl)-1′,3,3′,6-tetrahydro-7H-spiro[dipyrrolo[2,3-b:3′,2′-d]pyridine-8,2′-inden]-7-one], the IC50 was above 2500 nM in assay [1], 1250 to 2500 nM in assay [2], above 2500 nM in assay [3] and above 2500 nM in assay [4].

For the origin of these results see US11958861B2, “Spirocyclic lactams as JAK2 V617F inhibitors” (Incyte Corporation, priority 2021, dated 2024).
